Tested on: Human umbilical vein endothelial cells (HUVEC)
Test: Evaluation of NO-production-promoting activity (NO2/NO3 Assay Kit-FX)
Type: cell-based
Settings: 24 hours, sample solution 10 to 1000 μg/mL in medium containing 1% DMSO, culture supernatant
Procedure: The purple-tea sample and the GHG sample obtained in the above example were dissolved in a medium containing 1% DMSO (concentration: 10 to 1000 μg/mL) to prepare a sample solution. A medium containing 1% DMSO was used for a control.
Human umbilical vein endothelial cells (HUVEC) (6.2×10^4 cells/500 μL) were seeded in 24-well plates, pre cultured for 1 day, then the medium was changed (450 μl). After that, a sample solution of 50 μL was added to each well to react for 24 hours. After the reaction, the culture supernatant was subjected to a measurement of a NO-production amount. For the measurement of the NO-production amount, “NO2/NO3 Assay Kit-FX” (trade name, manufactured by Dojindo Molecular Technologies, Inc.) was used. The results are shown in FIG. 2 (purple-tea extract) and FIG. 3 (GHG).
The NO2/NO3 Assay Kit-FX is a kit used for indirectly measuring NO in a sample by the fluorescence method, using the reaction between NO2^− and DAN (2,3-Diaminonaphthalene).

O=C(OC1OC2COC(=O)c3cc(O)c(O)c(O)c3-c3c(cc(O)c(O)c3O)C(=O)OC2C(O)C1OC(=O)c1cc(O)c(O)c(O)c1)c1cc(O)c(O)c(O)c1 [GHG, 1,2-di-O-galloyl-4,6-O-(S)-hexahydroxydiphenoyl-β-D-glucose]
NO-production promoting effect (NO2−, NO3− and NO total production): has a NO3− and a NO-total production-promoting effect
